Source: patent publication US6737383B1, “Herbicidal oxadiazolidines” (priority 1999, dated 2004)

Columns and labels:
rape = assay: Test B pre/postemergence rape; type: in vivo, Brassica napus
Summary of the method: (§1)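 Test chemicals in a non-phytotoxic solvent mixture with surfactant were sprayed preemergence onto planted seeds and postemergence onto plants 2 to 18 cm tall (1- to 4-leaf stage). After twelve to sixteen days in a greenhouse, injury was visually rated against untreated controls from 0 (no effect) to 10 (complete control).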

duck salad = assay: Test B flood test duck salad; type: in vivo, Heteranthera limosa
Summary of the method: (§2)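 Flood test on plants grown to the 2-leaf stage; treated plants kept in greenhouse twelve to sixteen days, then visually rated against controls on a 0 (no effect) to 10 (complete control) scale.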

bedstraw = assay: Test B pre/postemergence bedstraw; type: in vivo, Galium aparine
Summary of the method: as §1

corn = assay: Test B pre/postemergence corn; type: in vivo, Zea mays
Summary of the method: as §1

wild oat = assay: Test B pre/postemergence wild oat; type: in vivo, Avena fatua
Summary of the method: as §1

rice = assay: Test B flood test rice; type: in vivo, Oryza sativa
Summary of the method: as §2

pigweed = assay: Test B pre/postemergence pigweed; type: in vivo, Amaranthus retroflexus
Summary of the method: as §1

purple nutsedge = assay: Test B pre/postemergence purple nutsedge; type: in vivo, Cyperus rotundus
Summary of the method: as §1

soybean = assay: Test B pre/postemergence soybean; type: in vivo, Glycine max
Summary of the method: as §1

cocklebur = assay: Test B pre/postemergence cocklebur; type: in vivo, Xanthium strumarium
Summary of the method: as §1

giant foxtail = assay: Test B pre/postemergence giant foxtail; type: in vivo, Setaria faberii
Summary of the method: as §1

sugar beet = assay: Test B pre/postemergence sugar beet; type: in vivo, Beta vulgaris
Summary of the method: as §1

velvetleaf = assay: Test B pre/postemergence velvetleaf; type: in vivo, Abutilon theophrasti
Summary of the method: as §1

smallflower flatsedge = assay: Test B flood test smallflower flatsedge; type: in vivo, Cyperus difformis
Summary of the method: as §2

wheat = assay: Test B pre/postemergence wheat; type: in vivo, Triticum aestivum
Summary of the method: as §1

surinam grass = assay: Test B pre/postemergence surinam grass; type: in vivo, Brachiaria decumbens
Summary of the method: as §1

[1] = Preemergence, Rate 31 g/ha, visual rating, scale 0 to 10 (0 no effect, 10 complete control)
[2] = Preemergence, Rate 62 g/ha, scale of 0 to 10 where 0 is no effect and 10 is complete control
[3] = Rate 16 g/ha, Postemergence, scale 0 to 10, 0 no effect, 10 complete control
[4] = Rate 16 g/ha, Preemergence, scale 0 to 10, 0 no effect, 10 complete control
[5] = Rate 31 g/ha, Postemergence, scale 0 to 10
[6] = Rate 62 g/ha, Postemergence, scale 0 to 10 (0 no effect, 10 complete control)
[7] = Rate 125 g/ha, Postemergence, scale of 0 to 10 where 0 is no effect and 10 is complete control
[8] = Rate 125 g/ha, Preemergence, scale of 0 to 10 where 0 is no effect and 10 is complete control
[9] = Rate 16 g/ha, head printed Pre-emergence (flood test species), scale 0 to 10, 0 no effect, 10 complete control
[10] = Rate 31 g/ha, Pre-emergence section (flood test species), scale 0 to 10
[11] = Rate 62 g/ha, headed Pre-emergence (flood test species), scale 0 to 10 (0 no effect, 10 complete control)
[12] = Rate 125 g/ha, Pre-emergence, flood test species, scale 0 to 10 where 0 is no effect and 10 is complete control

## CC(C)N(C(=O)n1oc(=O)n(CCCF)c1=O)c1ccc(F)cc1 [Compound 287]
rape; [1]
  Rape plant response rating: 4
rape; [2]
  Rape plant response rating: 4
rape; [3]
  Rape plant response rating: 0
rape; [4]
  Rape plant response rating: 0
rape; [5]
  Rape plant response rating: 0
rape; [6]
  Rape plant response rating: 0
rape; [7]
  Rape plant response rating: 0
rape; [8]
  Rape plant response rating: 8
Duck salad; [9]
  Ducksalad plant response rating: 0
Duck salad; [10]
  Ducksalad plant response rating: 0
Duck salad; [11]
  Ducksalad plant response rating: 0
Duck salad; [12]
  Ducksalad plant response rating: 0
bedstraw; [1]
  Bedstraw plant response rating: 4
bedstraw; [2]
  Bedstraw plant response rating: 9
bedstraw; [3]
  Bedstraw plant response rating: 0
bedstraw; [4]
  Bedstraw plant response rating: 0
bedstraw; [5]
  Bedstraw plant response rating: 0
bedstraw; [6]
  Bedstraw plant response rating: 4
bedstraw; [7]
  Bedstraw plant response rating: 8
bedstraw; [8]
  Bedstraw plant response rating: 10
corn; [1]
  Corn plant response rating: 0
corn; [2]
  Corn plant response rating: 0
corn; [3]
  Corn plant response rating: 0
corn; [4]
  Corn plant response rating: 0
corn; [5]
  Corn plant response rating: 0
corn; [6]
  Corn plant response rating: 0
corn; [7]
  Corn plant response rating: 0
corn; [8]
  Corn plant response rating: 0
Wild oat; [1]
  Wild oats plant response rating: 1
Wild oat; [2]
  Wild oats plant response rating: 8
Wild oat; [3]
  Wild oats plant response rating: 0
Wild oat; [4]
  Wild oats plant response rating: 0
Wild oat; [6]
  Wild oats plant response rating: 2
Wild oat; [7]
  Wild oats plant response rating: 3
rice; [9]
  Rice plant response rating: 0
rice; [10]
  Rice plant response rating: 0
rice; [11]
  Rice plant response rating: 0
rice; [12]
  Rice plant response rating: 0
pigweed; [1]
  Redroot pigweed plant response rating: 4
pigweed; [2]
  Redroot pigweed plant response rating: 5
pigweed; [3]
  Redroot pigweed plant response rating: 0
pigweed; [4]
  Redroot pigweed plant response rating: 0
pigweed; [5]
  Redroot pigweed plant response rating: 0
pigweed; [6]
  Redroot pigweed plant response rating: 2
pigweed; [7]
  Redroot pigweed plant response rating: 6
pigweed; [8]
  Redroot pigweed plant response rating: 8
Purple nutsedge; [1]
  Nutsedge plant response rating: 0
Purple nutsedge; [2]
  Nutsedge plant response rating: 0
Purple nutsedge; [3]
  Nutsedge plant response rating: 0
Purple nutsedge; [4]
  Nutsedge plant response rating: 0
Purple nutsedge; [5]
  Nutsedge plant response rating: 5
Purple nutsedge; [6]
  Nutsedge plant response rating: 6
Purple nutsedge; [7]
  Nutsedge plant response rating: 6
Purple nutsedge; [8]
  Nutsedge plant response rating: 6
soybean; [1]
  Soybean plant response rating: 0
soybean; [2]
  Soybean plant response rating: 0
soybean; [3]
  Soybean plant response rating: 1
soybean; [4]
  Soybean plant response rating: 0
soybean; [6]
  Soybean plant response rating: 1
soybean; [7]
  Soybean plant response rating: 3
soybean; [8]
  Soybean plant response rating: 6
cocklebur; [1]
  Cocklebur plant response rating: 0
cocklebur; [2]
  Cocklebur plant response rating: 0
cocklebur; [3]
  Cocklebur plant response rating: 0
cocklebur; [4]
  Cocklebur plant response rating: 0
cocklebur; [5]
  Cocklebur plant response rating: 0
cocklebur; [6]
  Cocklebur plant response rating: 0
cocklebur; [7]
  Cocklebur plant response rating: 1
cocklebur; [8]
  Cocklebur plant response rating: 0
Giant foxtail; [1]
  Giant foxtail plant response rating: 9
Giant foxtail; [2]
  Giant foxtail plant response rating: 10
Giant foxtail; [3]
  Giant foxtail plant response rating: 0
Giant foxtail; [4]
  Giant foxtail plant response rating: 8
Giant foxtail; [5]
  Giant foxtail plant response rating: 2
Giant foxtail; [6]
  Giant foxtail plant response rating: 7
Giant foxtail; [7]
  Giant foxtail plant response rating: 8
Giant foxtail; [8]
  Giant foxtail plant response rating: 10
Sugar beet; [1]
  Sugarbeets plant response rating: 0
Sugar beet; [2]
  Sugarbeets plant response rating: 3
Sugar beet; [3]
  Sugarbeets plant response rating: 0
Sugar beet; [4]
  Sugarbeets plant response rating: 0
Sugar beet; [6]
  Sugarbeets plant response rating: 0
Sugar beet; [7]
  Sugarbeets plant response rating: 0
Sugar beet; [8]
  Sugarbeets plant response rating: 6
velvetleaf; [1]
  Velvetleaf plant response rating: 3
velvetleaf; [2]
  Velvetleaf plant response rating: 6
velvetleaf; [3]
  Velvetleaf plant response rating: 0
velvetleaf; [4]
  Velvetleaf plant response rating: 1
velvetleaf; [6]
  Velvetleaf plant response rating: 0
velvetleaf; [7]
  Velvetleaf plant response rating: 4
velvetleaf; [8]
  Velvetleaf plant response rating: 7
Smallflower flatsedge; [9]
  S. Flatsedge plant response rating: 0
Smallflower flatsedge; [10]
  S. Flatsedge plant response rating: 0
Smallflower flatsedge; [11]
  S. Flatsedge plant response rating: 0
Smallflower flatsedge; [12]
  S. Flatsedge plant response rating: 0
wheat; [1]
  Wheat plant response rating: 0
wheat; [2]
  Wheat plant response rating: 0
wheat; [3]
  Wheat plant response rating: 0
wheat; [4]
  Wheat plant response rating: 0
wheat; [6]
  Wheat plant response rating: 5
wheat; [7]
  Wheat plant response rating: 5
wheat; [8]
  Wheat plant response rating: 7
Surinam grass; [1]
  B. signalgrass plant response rating: 3
Surinam grass; [2]
  B. signalgrass plant response rating: 6
Surinam grass; [3]
  B. signalgrass plant response rating: 0
Surinam grass; [4]
  B. signalgrass plant response rating: 0
Surinam grass; [5]
  B. signalgrass plant response rating: 0
Surinam grass; [6]
  B. signalgrass plant response rating: 0
Surinam grass; [7]
  B. signalgrass plant response rating: 2
Surinam grass; [8]
  B. signalgrass plant response rating: 10
